Laboratory results taken from EP1247803A2, “Indolinone compounds suitable for modulation of protein kinases” (Sugen, Inc., priority 1996, dated 1998).

Assays:
PDGF-R = PDGF-R (Homo sapiens, UniProt P09619); test: PDGF-R ELISA; format: cell-based
Text: A PDGF-R ELISA is described in International Patent Publication No. WO 96/40116, published December 19, 1996 by Tang et al.

EGFR = molecular target: T1, EGFR (Homo sapiens, UniProt P00533); test: EGFR ELISA assay (in vitro kinase activity, EGFR captured from A431 cell lysate); format: biochemical; set-up: concentration or dose not given beside the values
T1 construct: Add 7 ug A431 cell lysate per well (EGFR source); endogenous in cells; host or cells: A431
T1 sequence (P00533 25-1210): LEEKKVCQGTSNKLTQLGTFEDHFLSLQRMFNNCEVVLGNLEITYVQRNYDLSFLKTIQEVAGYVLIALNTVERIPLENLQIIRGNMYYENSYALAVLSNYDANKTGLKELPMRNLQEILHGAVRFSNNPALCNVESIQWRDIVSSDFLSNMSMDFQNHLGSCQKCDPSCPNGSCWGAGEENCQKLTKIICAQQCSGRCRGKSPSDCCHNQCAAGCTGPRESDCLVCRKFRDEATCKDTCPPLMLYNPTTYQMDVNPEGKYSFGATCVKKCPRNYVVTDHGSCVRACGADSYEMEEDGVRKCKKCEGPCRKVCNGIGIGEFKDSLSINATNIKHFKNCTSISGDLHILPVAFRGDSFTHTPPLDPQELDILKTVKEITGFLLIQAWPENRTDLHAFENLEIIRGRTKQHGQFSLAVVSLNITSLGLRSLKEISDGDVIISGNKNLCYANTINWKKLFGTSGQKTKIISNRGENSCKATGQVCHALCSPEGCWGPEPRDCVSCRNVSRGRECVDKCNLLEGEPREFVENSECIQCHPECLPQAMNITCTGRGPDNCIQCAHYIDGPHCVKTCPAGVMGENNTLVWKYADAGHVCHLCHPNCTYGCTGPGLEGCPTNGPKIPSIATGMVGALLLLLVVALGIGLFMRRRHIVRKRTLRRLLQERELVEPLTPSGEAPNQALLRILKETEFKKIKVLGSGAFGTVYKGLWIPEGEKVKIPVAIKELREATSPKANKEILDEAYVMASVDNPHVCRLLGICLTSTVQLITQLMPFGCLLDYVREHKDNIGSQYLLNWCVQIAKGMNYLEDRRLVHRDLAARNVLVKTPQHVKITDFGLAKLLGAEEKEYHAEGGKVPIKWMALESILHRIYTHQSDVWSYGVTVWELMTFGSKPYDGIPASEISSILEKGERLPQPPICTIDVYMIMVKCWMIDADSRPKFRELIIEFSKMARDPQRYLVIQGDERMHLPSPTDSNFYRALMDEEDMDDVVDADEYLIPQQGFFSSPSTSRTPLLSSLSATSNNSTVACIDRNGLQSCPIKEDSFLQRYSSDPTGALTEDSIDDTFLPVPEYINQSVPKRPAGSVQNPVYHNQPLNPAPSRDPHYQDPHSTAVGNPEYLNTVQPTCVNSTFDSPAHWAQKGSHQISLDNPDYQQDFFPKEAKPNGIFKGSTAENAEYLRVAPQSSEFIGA
Text: To provide a consistent method for measuring the in vitro kinase activity of the EGFR in an Enzyme-linked immunosorbent assay (Elisa).
Scope. The following protocol describes the procedures used to analyze protein tyrosine kinase activity on the EGFR in an Elisa. The procedure also describes the protocol for the initial screening of drugs for inhibition or activation of protein tyrosine kinase activity.
Reagents and Supplies. • 1. […] 05-101 monoclonal anti-EGFR antibody (commercially available from UB1) -80° C, 1 ml aliquots • 3. […] TBST Buffer Formulation: 50 mM Tris pH 7.2 150 mM NaCl 0.1% Triton X-100 • 5. Blocking Buffer Formulation: 5% Carnation Instant Milk in PBS • 6. A431 cell lysate A431 cells are available from a variety of commercial sources and may be used lysed using conventional methods known to those skilled in the art or as described for lysis of the 3T3 cells in the EGF cellular assay described herein. -80° C, 1 ml aliquots • 7. TBS Buffer Formulation: 50 mM Tris pH 7.2 150 mM NaCl • 8. […] NUNC 96-well V bottom polypropylene plates Applied Scientific Catalog # AS-72092 • 11. EDTA Formulation: 200 mM EDTA pH 8.0 • 12. […] Goat anti-rabbit IgG peroxidase conjugate Biosource Catalog # ALI0404 • 14. ABTS Solution Formulation: 100 mM Citric Acid (anhydrous) 250 mM Na2HPO4 pH 4.0 0.5 mg/ml ABTS (2,2'-azino-bis(3-ethylbenzthiazoline-6-sulfonic acid) (Sigma Catalog # A-1888) Keep solution in dark at 4 C until ready to use • 15. Hydrogen peroxide 30% solution Fisher Catalog # H325 Store in the dark at 4 C until ready to use • 16. ABTS/H2O2 Formulation: 15 mls ABTS solution 2 ul H2O2 Prepare 5 minutes before use and room temperature • 17. 0.2 M HCL stock in H2O Procedure. • 1. Coat Corning 96-well elisa plates with 0.5 ug per well 05-101 antibody. Bring final volume to 100 ul per well with PBS. Coat plates overnight at 4° C. • 2. Remove unbound 05-101 from wells by inverting plate to remove liquid. Wash 1x with distilled H2O by filling wells Pat the plate on a paper towel to remove excess liquid. • 3. Block plates with 5% milk in PBS. 150 ul per well. Incubate plate 30 minutes while shaking on a microtiter plate shaker. • 4. Wash plate 3x with dionized water, then once with TBST • 5. Add 7 ug A431 cell lysate per well (EGFR source). Add PBS to final volume of 100 ul per well Incubate 30 minutes while shaking. • 6. Wash as described in step 4. • 7. At this point, drugs or extracts are added to the wells. Dilute drugs/extracts 1:100 (unless specified otherwise) in TBS + 10% DMSO in 96-well polypropylene plates. Add 120 ul TBS to ELISA plate containing captured EGFR. Add 13.5 ul diluted drugs/extracts to ELISA plate. […] Incubate plate 30 minutes while shaking. • 8. […] (150 ul final volume in well with 3 uM ATP/5 mM MnCl2 final concentration in well.) Incubate 5 minutes while shaking vigorously. *NOTE: It is critical that ATP/MnCl2 phosphorylates the receptor for 5 minutes only. It is best to add the ATP/MnCl2 with an 12 channel pipettor 1 row at a time leaving 20 seconds between each row so that the reaction may be stopped with EDTA exactly 5 minutes later (this depends on the number of plates being phosphorylated in one batch). Shake between each addition. • 9. After 5 minutes, to stop reaction, add 16.5 ul of 200 mM EDTA pH 8.0 for 20 mM final in well, shaking continuously between each addition. This is done using the same timing method as above. After last row has received EDTA, shake plate an additional minute. • 10. Wash 4x with deionized water, twice with TBST. • 11. Add rabbit polyclonal anti-phosphotyrosine serum. Dilute 1:3000 in TBST. Add 100 ul per well. Incubate 30-45 minutes while shaking. • 12. Wash as described above in step 4. • 13. Add BioSource anti-rabbit peroxidase conjugate antibody. Dilute 1:2000 in TBST. Add 100 ul per well. Incubate 30 minutes while shaking. • 14. Wash as described in step 4. • 15. Add 100 ul of ABTS/H2O2 solution to well. Incubate 5 to 10 minutes while shaking. Remove bubbles • 16. […]

MET = MET biochemical kinase assay; set-up: species or system human; concentration or dose not given beside the values
Text: A met biochemical kinase assay may be performed for met generally as described above for other kinases by substituting that or the other kinases. In particular, ELISA plates are coated with goat anti-rabbit Fc antibodies, which are used to capture commercially available (from Santa Cruz Biotechnology) rabbit polyclonal antibodies to the cytoplasmic domain of human MET. […] The chimeric receptors, or MET, from these lysates are captured on the antibody coated plates. After washing away extraneous proteins, test compounds are added and an in vitro kinase assay is performed by addition of an appropriate kinase buffer (containing ATP, divalent metal ions, etc.). Incorporation of phosphate into the captured receptors is detected with an anti-phosphotyrosine antibody conjugate with horse radish peroxidase using TMB as a substrate for colorimetric detection.

Sequence of PDGF-R (P09619 33-1106, species assumed): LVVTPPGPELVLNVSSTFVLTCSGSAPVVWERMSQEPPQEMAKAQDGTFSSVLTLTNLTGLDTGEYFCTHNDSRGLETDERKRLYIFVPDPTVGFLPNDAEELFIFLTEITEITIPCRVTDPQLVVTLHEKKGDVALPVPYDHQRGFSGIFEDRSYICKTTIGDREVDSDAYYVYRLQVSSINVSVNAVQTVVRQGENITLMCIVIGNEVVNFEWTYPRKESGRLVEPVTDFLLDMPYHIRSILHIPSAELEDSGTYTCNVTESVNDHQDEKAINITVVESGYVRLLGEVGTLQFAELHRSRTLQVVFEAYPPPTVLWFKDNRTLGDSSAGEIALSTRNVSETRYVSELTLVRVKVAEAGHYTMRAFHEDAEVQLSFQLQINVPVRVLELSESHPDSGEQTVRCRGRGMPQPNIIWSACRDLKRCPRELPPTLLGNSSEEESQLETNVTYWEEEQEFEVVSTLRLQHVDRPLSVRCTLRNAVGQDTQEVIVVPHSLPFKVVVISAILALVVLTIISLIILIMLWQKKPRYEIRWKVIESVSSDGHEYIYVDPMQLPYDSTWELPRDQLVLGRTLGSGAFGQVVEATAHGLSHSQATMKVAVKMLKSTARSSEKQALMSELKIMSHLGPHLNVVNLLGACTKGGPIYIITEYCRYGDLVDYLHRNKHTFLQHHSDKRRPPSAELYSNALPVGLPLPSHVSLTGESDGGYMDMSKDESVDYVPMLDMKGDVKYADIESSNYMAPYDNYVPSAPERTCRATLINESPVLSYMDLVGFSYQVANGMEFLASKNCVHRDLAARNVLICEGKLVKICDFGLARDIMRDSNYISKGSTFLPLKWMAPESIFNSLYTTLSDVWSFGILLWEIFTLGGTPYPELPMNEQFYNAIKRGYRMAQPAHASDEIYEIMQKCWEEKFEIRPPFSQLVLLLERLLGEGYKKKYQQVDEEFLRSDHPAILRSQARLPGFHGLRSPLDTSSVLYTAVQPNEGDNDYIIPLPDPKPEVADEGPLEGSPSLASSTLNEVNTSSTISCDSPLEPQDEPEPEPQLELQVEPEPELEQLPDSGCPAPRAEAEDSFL

| Structure (SMILES) | PDGF Kinase %Inhibition (PDGF-R) [%] | Biochem EGFR %Inhibition (EGFR) [%] | Met Kinase % Inhibition (MET) [%] |
| --- | --- | --- | --- |
| COc1c(C(C)C)cc(C=C2C(=O)Nc3ccc(I)cc32)cc1C(C)C [10732/B03] | 17.4 | -15.3 | 58.1 |
| COc1c(Cl)cc(C=C2C(=O)Nc3ccc(I)cc32)cc1C(C)(C)C [10732/B09] | 18.4 | 2.0 | 69.2 |
| CNS(=O)(=O)c1ccc2c(c1)C(=Cc1cc(C(C)C)c(Oc3ccccc3)c(C(C)C)c1)C(=O)N2 [10732/D04] | 50.7 | -11.4 | 40.7 |
| CC(C)c1ccc2occ(C=C3C(=O)Nc4ccc(S(=O)(=O)Nc5ccc(C(F)(F)F)cc5)cc43)c(=O)c2c1 [10731/E05] | 27.0 | 17.7 | 82.2 |
| O=C1Nc2ccc(S(=O)(=O)Nc3ccc(C(F)(F)F)cc3)cc2C1=Cc1coc2ccc([N+](=O)[O-])cc2c1=O [10731/E07] | 3.7 | 38.4 | 45.9 |
| Cc1cc2occ(C=C3C(=O)Nc4ccc(S(=O)(=O)N5CCOCC5)cc43)c(=O)c2cc1C [10731/F03] | 11.8 | 8.4 | 40.6 |
| CC(C)(C)c1cc(C=C2C(=O)Nc3c(Br)cc(Br)cc32)ccc1OCc1ccccc1 [10732/A06] | 12.3 | -1.4 | 5.7 |
| CNS(=O)(=O)c1ccc2c(c1)C(=Cc1cc(Cl)c(OCc3ccccc3)c(C(C)(C)C)c1)C(=O)N2 [10732/D10] | 24.5 | -16.6 | 33.1 |
| COc1c(Cl)cc(C=C2C(=O)Nc3c(Br)cc(Br)cc32)cc1C(C)(C)C [10732/A09] | 8.8 | 39.7 | 60.3 |
| CC(C)(C)c1cc(C=C2C(=O)Nc3ccc(I)cc32)ccc1OCc1ccccc1 [10732/B06] | -12.4 | 12.8 | 74.3 |
| COc1ccc2[nH]cc(C=C3C(=O)Nc4ccc(S(=O)(=O)Nc5ccc(C(F)(F)F)cc5)cc43)c2c1 [10731/E09] | 23.2 | 17.2 | 27.0 |
| Cc1ccc2occ(C=C3C(=O)Nc4ccc(S(=O)(=O)Nc5ccc(C(F)(F)F)cc5)cc43)c(=O)c2c1 [10731/E06] | -12.0 | 10.4 | 37.7 |
| CC(C)(C)c1cc(C=C2C(=O)Nc3ccc(I)cc32)cc(Br)c1OCc1ccccc1 [10732/B08] | 16.9 | 7.8 | 64.4 |
| CNS(=O)(=O)c1ccc2c(c1)C(=Cc1cc(Cl)c(OC)c(C(C)(C)C)c1)C(=O)N2 [10732/D09] | 15.9 | -9.9 | 40.3 |
| COc1ccc(C=C2C(=O)Nc3ccc(I)cc32)cc1C(C)(C)C [10732/B05] | 21.9 | 17.0 | 71.2 |
| COc1ccc2[nH]cc(C=C3C(=O)Nc4ccc(CCCl)cc43)c2c1 [10731/G09] | -8.7 | 8.9 | 4.4 |
| COc1c(I)cc(C=C2C(=O)Nc3c(Br)cc(Br)cc32)cc1C(C)(C)C [10732/A11] | 40.1 | 1.8 | 65.3 |
| CNS(=O)(=O)c1ccc2c(c1)C(=Cc1c[nH]c3ccc(OC)cc13)C(=O)N2 [10731/D09] | -2.0 | 12.6 | 23.9 |
| COc1c(I)cc(C=C2C(=O)Nc3ccc(Br)c(C)c32)cc1C(C)(C)C [10732/C11] | 16.4 | -5.0 | 31.9 |
| CCn1c2ccccc2c2cc(C=C3C(=O)Nc4ccc(S(=O)(=O)Nc5ccc(C(F)(F)F)cc5)cc43)ccc21 [10731/E02] | 13.7 | 7.9 | 49.1 |
| O=C1Nc2ccc(CCCl)cc2C1=Cc1coc2ccc([N+](=O)[O-])cc2c1=O [10731/G07] | 40.8 | 0.7 | 10.9 |
| CCn1c2ccccc2c2cc(C=C3C(=O)Nc4ccc(S(=O)(=O)N5CCOCC5)cc43)ccc21 [10731/F02] | 14.1 | 17.7 | 47.5 |
| CNS(=O)(=O)c1ccc2c(c1)C(=CC(c1cccs1)C(F)(F)F)C(=O)N2 (stereo not drawn) [10732/D02] | -24.0 | 8.7 | 50.2 |
| CNS(=O)(=O)c1ccc2c(c1)C(=Cc1ccc(OCc3ccccc3)c(C(C)(C)C)c1)C(=O)N2 [10732/D06] | 16.4 | 3.6 | 24.3 |
| CNS(=O)(=O)c1ccc2c(c1)C(=C1C(=O)N(C)c3ccccc31)C(=O)N2 [10731/D10] | 9.9 | 15.8 | 21.1 |
| COc1ccc2[nH]cc(C=C3C(=O)Nc4ccc(S(=O)(=O)N5CCOCC5)cc43)c2c1 [10731/F09] | 15.6 | -0.7 | 20.5 |
| COc1c(C(C)C)cc(C=C2C(=O)Nc3ccc(Br)c(C)c32)cc1C(C)C [10732/C03] | 7.3 | 1.4 | 14.0 |
| Cc1cc2occ(C=C3C(=O)Nc4ccc(CCCl)cc43)c(=O)c2cc1C [10731/G03] | 6.5 | 7.7 | 33.7 |
| O=C1Nc2ccc(S(=O)(=O)N3CCOCC3)cc2C1=Cc1c[nH]c(=O)[nH]c1=O [10731/F08] | 4.1 | 7.1 | 23.5 |
| CNS(=O)(=O)c1ccc2c(c1)C(=Cc1coc3ccc(C)cc3c1=O)C(=O)N2 [10731/D06] | 8.0 | 23.2 | 59.7 |
